Where two headings read alike, the source gives them in different places.
Legend:
[1] = Pharmacokinetics of MRS4322 following intraperitoneal administration to mice (plasma and brain concentrations, LC-MS/MS); type: in vivo; conditions: female, mouse, plasma; for Tmax: MRS4322 0.16 mg/kg ip; for half-life: ip, MRS4322 […] ip
Procedure: Animals: Female C576BL/6J mice weighing approximately 0.02 kg were used for this study, supplied by the University of Texas Health Sciences Center (San Antonio, TX). All studies were conducted under approved University of Texas Health Sciences Center IACUC protocols.
Drug Administration: MRS4322 was solubilized in DMSO and then diluted in saline to prepare dosing solution. Final dosing solution concentration of MRS4322 was 100 μM. A 100 μL volume of dosing solution was administered intraperitoneally to each mouse per 20 gram body weight; MRS4322 was administered intraperitoneally at 0.16 mg/kg or 0.5 μmol/kg. Three mice were administered MRS4322 for each sampling timepoint.
Tissue Sampling: Blood and brain samples were obtained at 0, 0.083, 0.25, 0.5, 1, 2 and 8 hours post-dose. At each timepoint, mice (3/timepoint) were euthanized in a […] chamber. Whole blood was obtained by cardiac puncture into Microtainer tubes containing heparin and immediately centrifuged for preparation of plasma; plasma was stored at −80° C. At each timepoint, whole brain samples were obtained by decapitation, rinsed in ice-cold phosphate-buffered saline and weighed. Brain samples were then immediately flash-frozen in liquid nitrogen and stored at −80° C.
The following table outlines the LC and MS/MS conditions employed:
The calibration range for the MRS4322 plasma concentration standard curve was 2.42-242 ng/mL. The calibration range for MRS4322 brain concentrations was 2.41-233 ng/mL.
For bioanalysis of brain concentrations of MRS4322, brain samples were homogenized in ice-cold phosphate-buffered saline in a 4× dilution. Aliquots of the resulting diluted brain homogenate were treated with acetonitrile and analyzed by LC-MS/MS. Because of the 4× homogenate dilution, the calibration range of the MRS4322 brain standard curve was translated to 9.64-932 ng/gm. In several samples, MRS4322 was detectable but fell below the brain LLOQ of 9.64 ng/gm but were above background; in these cases the final reported brain concentration was extrapolated based on MS peak heights.

[2] = In vitro stability of MRS2365 in mouse plasma; type: in vitro ADME
Procedure: Whole blood was obtained from male CD-1 mice and human volunteers at Seventh Wave Laboratories (Maryland Heights, MO). Plasma and blood samples were prepared using either EDTA (1 mM) or lithium heparin as anticoagulants.
Plasma Stability Determination: MRS2365, enalapril and procaine were solubilized in phosphate-buffered saline, pH 7.4. […] Stability incubations were initiated with the addition of MRS2365 (1 μM final concentration). Initial assessments of stability in EDTA-generated plasma utilized incubation timepoints of 0, 10, 30, 60, 120 and 240 minutes (FIGS. 3 and 4). Subsequent studies comparing EDTA- and heparin-generated plasma utilized incubation timepoints of 0, 1, 2.5, 5, 7.5, 10 and 30 minutes (FIG. 7). Additional plasma stability incubations comparing EDTA- and heparin-generated plasma were performed using timepoints of 0, 5, 10, 20, 30, 45, 60 and 90 seconds (FIG. 8). For metabolite scouting analyses, MRS2365 was incubated in heparinized human plasma at a concentration of 100 μM for 10 or 30 minutes (FIG. 9). In all studies, plasma was immediately placed in microtainer tubes, frozen on dry ice and stored at −80° C. until analysis.
The following table outlines the LC and MS/MS conditions employed (Table 11).
The calibration range for MRS2365 plasma and blood concentration standard curves was 5-5000 ng/mL. […]

SMILES: CSc1nc(N)c2ncn([C@H]3[C@H](O)[C@H](O)[C@]4(CO)C[C@H]34)c2n1 [MRS4322]
- Tmax ([1]; C57BL/6J, mean, read-out: Tmax Mean): 4.98 min
- half-life ([1]; C57BL/6J, mean, read-out: Half-life Mean (converted)): 18.6 min
- Tmax ([1]; C576BL/6J, animals A-C, read-out: Tmax): 4.98 min
- half-life ([1]; C576BL/6J, animals A-C, read-out: Half-life (converted)): 18.4 min

SMILES: CSc1nc(N)c2ncn([C@H]3[C@H](O)[C@H](O)[C@]4(COP(=O)(O)OP(=O)(O)O)C[C@H]34)c2n1 [MRS2365]
- MRS2365 concentrations in heparin-treated plasma ([2]; heparin-treated mouse plasma, 0-90 seconds, even at 0 and 5 seconds): extremely low
- half-life at 1 μM ([2]; male, CD-1, EDTA-prepared mouse plasma, 1 μM, incubation out to 240 minutes): > 240 min
